Data on 46 compounds can be found in patent publication US9533952B2, “N-prop-2-ynyl carboxamide derivatives and their use as TRPA1 antagonists” (Orion Corporation, priority 2012, dated 2017).

This assay deals with TRPA1 (Homo sapiens, UniProt O75762). As to the kind of experiment: Determination of TRPA1 activity in vitro (TRPA1 antagonism in vitro). In kind it is cell-based. The settings on record: procedure of Wei et al., Anesthesiology 111 (2009) 147-154.
Sequence of TRPA1 (O75762 whole entry): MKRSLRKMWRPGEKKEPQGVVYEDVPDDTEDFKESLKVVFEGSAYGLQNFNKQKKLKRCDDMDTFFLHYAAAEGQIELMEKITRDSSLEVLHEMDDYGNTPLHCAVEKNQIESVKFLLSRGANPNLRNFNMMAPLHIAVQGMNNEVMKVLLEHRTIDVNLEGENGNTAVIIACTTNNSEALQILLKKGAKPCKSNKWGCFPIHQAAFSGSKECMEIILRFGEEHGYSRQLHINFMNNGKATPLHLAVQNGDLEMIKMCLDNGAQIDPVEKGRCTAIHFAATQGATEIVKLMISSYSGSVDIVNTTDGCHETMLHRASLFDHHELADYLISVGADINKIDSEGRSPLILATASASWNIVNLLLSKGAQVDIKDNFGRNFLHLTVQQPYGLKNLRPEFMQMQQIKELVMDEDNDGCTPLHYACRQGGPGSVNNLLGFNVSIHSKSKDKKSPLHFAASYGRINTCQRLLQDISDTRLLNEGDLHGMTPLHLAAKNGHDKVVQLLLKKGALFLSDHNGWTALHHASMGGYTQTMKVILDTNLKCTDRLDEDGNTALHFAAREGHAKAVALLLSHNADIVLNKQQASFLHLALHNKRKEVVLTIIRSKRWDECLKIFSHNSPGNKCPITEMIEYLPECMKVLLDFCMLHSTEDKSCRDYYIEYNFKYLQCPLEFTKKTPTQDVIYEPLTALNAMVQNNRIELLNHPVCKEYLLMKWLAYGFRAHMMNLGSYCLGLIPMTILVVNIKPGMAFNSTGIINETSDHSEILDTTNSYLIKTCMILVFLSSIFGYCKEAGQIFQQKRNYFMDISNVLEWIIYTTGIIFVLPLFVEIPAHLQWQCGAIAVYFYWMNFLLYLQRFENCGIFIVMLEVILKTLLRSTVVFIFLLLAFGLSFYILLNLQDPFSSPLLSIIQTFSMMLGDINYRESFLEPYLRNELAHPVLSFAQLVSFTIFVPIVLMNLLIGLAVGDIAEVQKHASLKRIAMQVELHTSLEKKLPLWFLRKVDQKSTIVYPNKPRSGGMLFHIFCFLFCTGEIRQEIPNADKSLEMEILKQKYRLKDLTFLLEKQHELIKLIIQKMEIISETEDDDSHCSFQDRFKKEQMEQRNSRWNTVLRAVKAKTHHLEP

The compound `C#CC(C)(C)NC(=O)c1cc(F)c(F)cc1NCC` [Example 65, 2-(Ethylamino)-4,5-difluoro-N-(2-methylbut-3-yn-2-yl)benzamide] returned an IC50 of 4.9 µM.

Regarding `C#CC(C)(C)NC(=O)c1cccc(F)c1NC1CCC1` [Example 21, 2-(Cyclobutylamino)-3-fluoro-N-(2-methylbut-3-yin-2-yl)benzamide], the midpoint of inhibition, the IC50, lay at 5.2 µM. `C#CC(C)(C)NC(=O)c1ccc(Cl)nc1NCC` [Example 113, 6-Chloro-2-(ethylamino)-N-(2-methylbut-3-yn-2-yl)nicotinamide]: the IC50 came to 7.2 µM.

With `C#CC(C)(CC)NC(=O)c1cccnc1Nc1ccc(F)c(F)c1` (stereo not shown) [Example 195, 2-(3,4-Difluorophenylamino)-N-(3-methylpent-1-yn-3-yl)nicotinamide], the IC50 is 0.1 µM. On to `C#CC(CC)(CC)NC(=O)c1cc(Br)ccc1NCCOC` [Example 43, 5-Bromo-(3-ethylpent-1-yn-3yl)-2-(2-methoxyethylamino)-benzamide], for which half-maximal inhibition (IC50) required 1 µM.

For the compound `C#CC(C)(C)NC(=O)c1ccc(F)cc1NCCC(F)(F)F` [Example 71, 4-Fluoro-N-(2-methylbut-3-yn-2-yl)-2-(3,3,3-trifluoropropylamino) benzamide], the IC50 worked out at 0.7 µM.

As to `C#CC(C)(C)NC(=O)c1cc(F)c(F)cc1NC(C)(C)C` [Example 82, 2-(tert-Butylamino)-4,5-difluoro-N-(2-methylbut-3-yn-2-yl)benzamide], the IC50 worked out at 5.4 µM. As to `C#CC(C)(CC)NC(=O)c1cccnc1Nc1ccc(Cl)c(OC)c1` (stereo not shown) [Example 197, 2-(4-Chloro-3-methoxyphenylamino)-N-(3-methylpent-1-yn-3-yl)nicotinamide], it took 0.7 µM to reach half-maximal inhibition (IC50). In turn, `C#CC(C)(CC)NC(=O)c1cc(F)cnc1NCC(F)F` (stereo not shown) [Example 20, 2-(2,2-Difluoroethylamino)-5-fluoro-N-(3-methylpent-1-yn-3-yl)nicotinamide] returned an IC50 of 1.4 µM. Compound `C#CC(C)(C)NC(=O)c1cccnc1Nc1cc(F)cc(F)c1` [Example 151, 2-(3,5-Difluorophenylamino)-N-(2-methylbut-3-yn-2-yl)nicotinamide] returned an IC50 of 0.5 µM. With `C#CC(C)(C)NC(=O)c1cnc(C(F)(F)F)nc1NC(C)(C)C` [Example 108, 4-(tert-Butylamino)-N-(2-methylbut-3-yn-2-yl)-2-(trifluoromethyl)pyrimidine-5-carboxamide] the figure was 5 µM; with `C#CC(C)(C)NC(=O)c1cc(OC(F)(F)F)ccc1NC` [Example 85, 2-(Methylamino)-N-(2-methylbut-3-yn-2-yl)-5-(trifluoromethoxy)-benzamide], 13.2 µM. Take `C#CC(C)(C)NC(=O)c1ccc(C)cc1NCCC(F)(F)F` [Example 94, 4-Methyl-N-(2-methylbut-3-yn-2-yl)-2-(3,3,3-trifluoropropylamino)-benzamide]: half-maximal inhibition (IC50) required 1.8 µM.

Compound `C#CC(C)(C)NC(=O)c1cc(C(F)(F)F)cnc1NCC(F)(F)F` [Example 35, N-(2-Methylbut-3-yn-2-yl)-2-(2,2,2-trifluoroethylamino)-5-(trifluoromethyl)nicotinamide] returned an IC50 of 0.5 µM.

Compound `C#CC(C)(C)NC(=O)c1cc(OC(F)(F)F)ccc1NCCC(F)(F)F` [Example 75, N-(2-Methylbut-3-yn-2-yl)-5-(trifluoromethoxy)-2-(3,3,3-trifluoropropylamino)benzamide] showed an IC50 of 0.7 µM. `C#CC(C)(C)NC(=O)c1cccnc1NC1CCC(F)(F)CC1` [Example 123, 2-(4,4-Difluorocyclohexylamino)-N-(2-methylbut-3-yn-2-yl)nicotinamide]: the IC50 is 3.8 µM. In the case of `C#CC(C)(C)NC(=O)c1cc(F)cnc1NC1CC(F)(F)C1` [Example 156, 2-(3,3-Difluorocyclobutylamino)-5-fluoro-N-(2-methylbut-3-yn-2-yl)nicotinamide], the IC50 was determined as 1.6 µM. `C#CC(C)(C)NC(=O)c1ccccc1NCC(C)C` [Example 80, 2-(Isobutylamino)-N-(2-methylbut-3-yn-2-yl)benzamide] came in with an IC50 of 1.3 µM. With `C#CC(C)(C)NC(=O)c1cc(F)c(F)cc1NCC(C)(C)C` [Example 61, 4,5-Difluoro-N-(2-methylbut-3-yn-2-yl)-2-(neopentylamino) benzamide] the figure was 0.8 µM.

Regarding `C#CC(C)(C)NC(=O)c1cc(Cl)ccc1NCCC` [Example 3, 5-Chloro-N-(2-methylbut-3-yn-2-ylbut-3)-2-(propylamino)benzamide], the IC50 was 1.1 µM. For `C#CC(C)(C)NC(=O)c1ccccc1NCC(C)(C)C` [Example 81, N-(2-Methylbut-3-yn-2-yl)-2-(neopentylamino)benzamide], 1.3 µM corresponded to half-maximal inhibition (IC50). Turning to `C#CC(C)(C)NC(=O)c1cc(I)ccc1NCCOC` [Example 50, 5-Iodo-2-(2-methoxyethylamino)-N-(2-methylbut-3-yn-2-yl)benzamide], the IC50 amounted to 5.8 µM.

On to `C#CC(C)(C)NC(=O)c1cc(C#N)ccc1NC1CCC1` [Example 36, 5-Cyano-2-(cyclobutylamino)-N-(2-methylbut-3-yn-2-yl)benzamide], for which the IC50 was determined as 4.2 µM. In the case of `C#CC(C)(C)NC(=O)c1sccc1NCC(C)C` [Example 136, 3-(Isobutylamino)-N-(2-methylbut-3-yn-2-yl)thiophene-2-carboxamide], the IC50 turned out to be 8.7 µM. In turn, `C#CC(C)(CC(C)C)NC(=O)c1cc(F)c(F)cc1NCC(C)C` (stereo not shown) [Example 68, N-(3,5-Dimethylhex-1-yn-3-yl)-4,5-difluoro-2-(isobutylamino)-benzamide] returned an IC50 of 1.1 µM. As to `C#CC(C)(C)NC(=O)c1cc(F)cnc1NCCOc1ccc(F)cc1` [Example 145, 5-Fluoro-2-(2-(4-fluorophenoxy)ethylamino)-N-(2-methylbut-3-yn-2-yl)nicotinamide], the IC50 is 3.3 µM. With `C#CC(C)(C)NC(=O)c1ccc(OC)cc1NCCC(F)(F)F` [Example 73, 4-Methoxy-N-(2-methylbut-3-yn-2-yl)-2-(3,3,3-trifluoropropylamino)-benzamide], the midpoint of inhibition, the IC50, lay at 2.2 µM. In turn, `C#CC(C)(CC)NC(=O)c1cccnc1Nc1ccc(F)c(C#N)c1` (stereo not shown) [Example 182, 2-(3-Cyano-4-fluorophenylamino)-N-(3-methylpent-1-yn-3-yl)nicotinamide] displayed an IC50 of 0.5 µM. `C#CC(C)(C)NC(=O)c1cccnc1Nc1cccc(OC)c1F` [Example 169, 2-(2-Fluoro-3-methoxyphenylamino)-N-(2-methylbut-3-yn-2-yl)nicotinamide] yielded an IC50 of 34.8 µM.

`C#CC(C)(C)NC(=O)c1cc(F)ccc1NC(C)C` [Example 92, 5-Fluoro-2-(isopropylamino)-N-(2-methylbut-3-yn-2-yl)benzamide] gave an IC50 of 12.3 µM.

Compound `C#CC(C)(C)NC(=O)c1cc(F)ccc1NCCC(F)(F)F` [Example 104, 5-Fluoro-N-(2-methylbut-3-yn-2-yl)-2-(3,3,3-trifluoropropylamino)benzamide] displayed an IC50 of 1.7 µM. `C#CC(C)(C)NC(=O)c1ccc(C(F)(F)F)nc1NC(C)C` [Example 106, 2-(Isopropylamino)-N-(2-methylbut-3-yn-2-yl)-6-(trifluoromethyl)-nicotinamide] displayed an IC50 of 1.3 µM. `C#CC(C)(C)NC(=O)c1cc(C(F)(F)F)ccc1NCC(F)(F)F` [Example 39, N-(2-Methylbut-3-yn-2-yl)-2-(2,2,2-trifluoroethylamino)-5-(trifluoromethyl) benzamide] displayed an IC50 of 0.6 µM. With `C#CC(C)(C)NC(=O)c1cc(F)ccc1NCC(F)(F)C(F)(F)F` [Example 31, 5-Fluoro-N-(2-methylbut-3-yn-2-yl)-2-(2,2,3,3,3-pentafluoropropylamino) benzamide] the figure was 2.6 µM; with `C#CC(C)(C)NC(=O)c1cccnc1Nc1ccc(F)cc1` [Example 131, 2-(4-Fluorophenylamino)-N-(2-methylbut-3-yn-2-yl)nicotinamide], 1.4 µM; with `C#CC(C)(C)NC(=O)c1cc(F)c(F)cc1NC1CC1` [Example 86, 2-(Cyclopropylamino)-4,5-difluoro-N-(2-methylbut-3-yn-2-yl) benzamide], 2.2 µM. With `C#CC(C)(C)NC(=O)c1cccnc1Nc1ccc(Cl)c(OC)c1` [Example 196, 2-(4-Chloro-3-methoxyphenylamino)-N-(2-methylbut-3-yn-2-yl)nicotinamide], the IC50 was found to be 3.2 µM. In the case of `C#CC(C)(C)NC(=O)c1ccc(C(F)(F)F)nc1NCC(C)C` [Example 105], the IC50 is 0.7 µM.

As to `C#CC(C)(C)NC(=O)c1ccc(C(F)(F)F)cc1NCCC(F)(F)F` [Example 72, N-(2-methylbut-3-yn-2-yl)-4-(trifluoromethyl)-2-(3,3,3-trifluoropropyl-amino)benzamide], the IC50 amounted to 0.5 µM. The same measure for `C#CC(C)(C)NC(=O)c1cc(Cl)cnc1Nc1cccnc1` [Example 138, 5-Chloro-N-(2-methylbut-3-yn-2-yl)-2-(pyridin-3-ylamino)nicotinamide]: 12 µM; for `C#CC(C)(C)NC(=O)c1cc(Cl)cnc1NCCOCC` [Example 148, 5-Chloro-2-(2-ethoxyethylamino)-N-(2-methylbut-3-yn-2-yl)nicotinamide]: 14.9 µM.

`C#CC(C)(C)NC(=O)c1cc(F)cc(F)c1NCCC(F)F` [Example 135, 2-(3,3-Difluoropropylamino)-3,5-difluoro-N-(2-methylbut-3-yn-2-yl)benzamide] gave an IC50 of 5 µM.

`C#CC(C)(C)NC(=O)c1cccnc1NCc1cccc(OC)c1` [Example 97, 2-(3-Methoxybenzylamino)-N-(2-methylbut-3-yn-2-yl)nicotinamide]: the IC50 is 14 µM. `C#CC(C)(C)NC(=O)c1cc(C(F)(F)F)ccc1NCCC(F)(F)F` [Example 12, N-(2-Methylbut-3-yn-2-yl)-5-(trifluoromethyl)-2-(3,33-trifluoropropylamino) benzamide] had an IC50 of 0.5 µM.

`C#CC(C)(C)NC(=O)c1cc(F)c(F)cc1NC1CCC1` [Example 17, 2-(Cyclobutylamino)-4,5-difluoro-N-(2-methylbut-3-yn-2-yl)benzamide] gave an IC50 of 1.2 µM.

The compound `C#CC(C)(CC)NC(=O)c1cc(F)cnc1Nc1ccc(F)cc1` (stereo not shown) [Example 171, 5-Fluoro-2-(4-fluorophenylamino)-N-(3-methylpent-1-yn-3-yl)nicotinamide] returned an IC50 of 0.3 µM.
